These results are taken from patent US20240124432A1, “HERBICIDAL COMPOUNDS” (SYNGENTA CROP PROTECTION AG, priority 2020, published 2024).

Holding throughout (assay type): in vivo
Test [1] relates to AMAPA. Briefly: Pre-emergence biological efficacy. The note with it: Amaranthus palmeri, 312 h, evaluated after 13 days, read-out: damage to plant (100=total damage to plant; 0=no damage to plant). The protocol:
(§1) Seeds of weeds and/or crops were sown in standard soil in pots. After cultivation for one day under controlled conditions in a glasshouse (at 24/19° C., day/night; 16 hours light), the plants were sprayed with an aqueous spray solution derived from the formulation of the technical active ingredient in a small amount of acetone and a special solvent and emulsifier mixture referred to as IF50 (11.12% Emulsogen EL360 TM+44.44% N-methylpyrrolidone+44.44% Dowanol DPM glycol ether), to create a 50g/l solution which was then diluted using 0.2% Genapol XO80 as diluent to give the desired final dose of test compound.
(§2) The test plants were then grown under controlled conditions in the glasshouse (at 24/18° C., day/night; 15 hours light; 50% humidity) and watered twice daily. After 13 days the test was evaluated (100=total damage to plant; 0=no damage to plant).

The test system of test [2] is ECHCG. Briefly: Pre-emergence biological efficacy. Conditions: Echinochloa crus-galli, 312 h, evaluated after 13 days, read-out: damage to plant (100=total damage to plant; 0=no damage to plant). The protocol:
as §1, §2

The test system of test [3] is EPHHL. Briefly: Pre-emergence biological efficacy. Conditions: Euphorbia heterophylla, 312 h, evaluated after 13 days, read-out: damage to plant (100=total damage to plant; 0=no damage to plant). The procedure: as §1, §2
Test [4] deals with IPOHE. In words: Pre-emergence biological efficacy. Conditions: Ipomoea hederacea, 312 h, evaluated after 13 days, read-out: damage to plant (100=total damage to plant; 0=no damage to plant). The protocol: as §1, §2
Test [5] concerns LOLPE. In words: Pre-emergence biological efficacy. The note with it: Lolium perenne, 312 h, evaluated after 13 days, read-out: damage to plant (100=total damage to plant; 0=no damage to plant). The procedure:
as §1, §2

Test [6] concerns SETFA. Briefly: Pre-emergence biological efficacy. Conditions: Setaria faberi, 312 h, evaluated after 13 days, read-out: damage to plant (100=total damage to plant; 0=no damage to plant). The procedure:
as §1, §2

For test [7], the system named is AMAPA. Briefly: Post-emergence biological efficacy. The note with it: Amaranthus palmeri, 312 h, evaluated after 13 days, read-out: damage to plant (100=total damage to plant; 0=no damage to plant). The procedure: as §1, with “14 days” for “one day”
(§3) The test plants were then grown under controlled conditions in the glasshouse (at 24/18° C., day/night; 15 hours light; 50% humidity)and watered twice daily. After 13 days the test was evaluated (100=total damage to plant; 0=no damage to plant).

In the next test the test system is CHEAL. In words: Post-emergence biological efficacy. The note with it: Chenopodium album, 312 h, evaluated after 13 days, read-out: damage to plant (100=total damage to plant; 0=no damage to plant). The protocol: as §1, with “14 days” for “one day”
as §3

Another test deals with DIGSA. In words: Post-emergence biological efficacy. The note with it: Digitaria sanguinalis, 312 h, evaluated after 13 days, read-out: damage to plant (100=total damage to plant; 0=no damage to plant). The procedure: as §1, with “14 days” for “one day”
as §3

Test [8] concerns ECHCG. Briefly: Post-emergence biological efficacy. The note with it: Echinochloa crus-galli, 312 h, evaluated after 13 days, read-out: damage to plant (100=total damage to plant; 0=no damage to plant). The protocol: as §1, with “14 days” for “one day”
as §3

Another test has as its system ELEIN. Briefly: Post-emergence biological efficacy. Conditions: 312 h, evaluated after 13 days, read-out: damage to plant (100=total damage to plant; 0=no damage to plant). The protocol:
as §1, with “14 days” for “one day”
as §3

Test [9] has as its system EPHHL. Briefly: Post-emergence biological efficacy. The note with it: Euphorbia heterophylla, 312 h, evaluated after 13 days, read-out: damage to plant (100=total damage to plant; 0=no damage to plant). The protocol:
as §1, with “14 days” for “one day”
as §3

Test [10] deals with IPOHE. Briefly: Post-emergence biological efficacy. Conditions: Ipomoea hederacea, 312 h, evaluated after 13 days, read-out: damage to plant (100=total damage to plant; 0=no damage to plant). The procedure:
as §1, with “14 days” for “one day”
as §3

In test [11] the test system is LOLPE. In words: Post-emergence biological efficacy. The note with it: Lolium perenne, 312 h, evaluated after 13 days, read-out: damage to plant (100=total damage to plant; 0=no damage to plant). The procedure:
as §1, with “14 days” for “one day”
as §3

Test [12] relates to SETFA. In words: Post-emergence biological efficacy. Conditions: Setaria faberi, 312 h, evaluated after 13 days, read-out: damage to plant (100=total damage to plant; 0=no damage to plant). The procedure: as §1, with “14 days” for “one day”
as §3

Take `CCOC(=O)C1(C)CC(c2cc(-c3cc(C(F)(F)F)ccn3)c(F)cc2Cl)=NO1` (stereo not drawn) [Compound 1-319, Ethyl 3-[2-chloro-4-fluoro-5-[4-(trifluoromethyl)-2-pyridyl]-phenyl]-5-methyl-4H-isoxazole-5-carboxylate]: the pest or weed control at 250 g/ha was 40% in the test with AMAPA [1]; 30% in the test on ECHCG [2]; 20% with EPHHL [3]; 0% in the test on IPOHE [4]; 10% in the test with LOLPE [5]; 0% in the test on SETFA [6]. For the same compound, the pest or weed control at 250 g/ha in the test on AMAPA [7] was found to be 80%; in the test with CHEAL, 90%; in the test on DIGSA, 80%; with ECHCG [8] it was 60%; in the test on ELEIN it was 40%; in the test with EPHHL [9], 80%. The results for the pest or weed control at 250 g/ha in the test on IPOHE [10], in the test on LOLPE [11] and with SETFA [12] were 100%, 10% and 70%, respectively.

`CCOC(=O)C1(C)CC(c2cc(-c3ccc(C(F)(F)F)cn3)c(F)cc2Cl)=NO1` (stereo not drawn) [Compound 1-79, Ethyl 3-[2-chloro-4-fluoro-5-[5-(trifluoromethyl)-2-pyridyl]phenyl]-5-methyl-4H-isoxazole-5-carboxylate]: the pest or weed control at 250 g/ha in the test with AMAPA [1] was 50%; with ECHCG [2], 80%; in the test with EPHHL [3] it was 60%; in the test with IPOHE [4] it was 100%; in the test with LOLPE [5], 40%; in the test with SETFA [6] it was 60%. Also, the pest or weed control at 250 g/ha turned out to be 100% with AMAPA [7]; 100% in the test with CHEAL; 100% with DIGSA; 100% in the test with ECHCG [8]; 90% in the test with ELEIN; 100% in the test with EPHHL [9]. Moreover, the pest or weed control at 250 g/ha in the test with IPOHE [10], with LOLPE [11] and in the test with SETFA [12] was 100% each time.

Take `CCOC(=O)C1(C)CC(c2cc(-c3ccc(C(F)(F)F)cc3Cl)c(F)cc2Cl)=NO1` (stereo not drawn) [Compound 1-7, Ethyl 3-[2-chloro-5-[2-chloro-4-(trifluoromethyl)phenyl]-4-fluoro-phenyl]-5-methyl-4H-isoxazole-5-carboxylate]: the pest or weed control at 250 g/ha is 30% in the test with AMAPA [1]; 0% in the test with ECHCG [2]; 0% with EPHHL [3]; 0% in the test on IPOHE [4]; 0% with LOLPE [5]; 0% in the test with SETFA [6]. Further, the pest or weed control at 250 g/ha was found to be 90% in the test with AMAPA [7]; 100% in the test with CHEAL; 40% with DIGSA; 30% with ECHCG [8]; 70% with ELEIN; 90% in the test with EPHHL [9]. Further, the pest or weed control at 250 g/ha amounted to 90% with IPOHE [10], 10% with LOLPE [11] and 60% in the test with SETFA [12].

With `CCOC(=O)C1(C)CC(c2cc(-c3cc(C)cnc3F)c(F)cc2Cl)=NO1` (stereo not drawn) [Compound 1-223, Ethyl 3-[2-chloro-4-fluoro-5-(2-fluoro-5-methyl-3-pyridyl)phenyl]-5-methyl-4H-isoxazole-5-carboxylate], the pest or weed control at 250 g/ha in the test on AMAPA [1], in the test on ECHCG [2], in the test on EPHHL [3], in the test on IPOHE [4], in the test on LOLPE [5] and in the test on SETFA [6] was 0% in each case. The pest or weed control at 250 g/ha is 100% in the test on AMAPA [7]; 80% in the test with CHEAL; 30% with DIGSA; 50% with ECHCG [8]; 10% in the test with ELEIN; 70% with EPHHL [9]. The pest or weed control at 250 g/ha is 100% with IPOHE [10], 20% in the test with LOLPE [11] and 80% in the test on SETFA [12].

Turning to `CCOC(=O)C1(C)CC(c2cc(-c3cnc(F)c(Cl)c3)c(F)cc2Cl)=NO1` (stereo not drawn) [Compound 1-403, Ethyl 3-[2-chloro-5-(5-chloro-6-fluoro-3-pyridyl)-4-fluoro-phenyl]-5-methyl-4H-isoxazole-5-carboxylate], the pest or weed control at 250 g/ha worked out at 30% in the test on AMAPA [1]; 40% with ECHCG [2]; 20% with EPHHL [3]; 10% in the test on IPOHE [4]; 20% in the test on LOLPE [5]; 0% with SETFA [6]. Besides, the pest or weed control at 250 g/ha stood at 70% in the test with AMAPA [7]; 70% with CHEAL; 70% with DIGSA; 40% in the test with ECHCG [8]; 60% in the test on ELEIN; 70% in the test with EPHHL [9]. Further, the pest or weed control at 250 g/ha came out at 50% in the test with IPOHE [10], 20% in the test with LOLPE [11] and 40% in the test on SETFA [12].

`CCOC(=O)C1(C)CC(c2cc(-c3nccnc3C)c(F)cc2Cl)=NO1` (stereo not drawn) [Compound 1-775, Ethyl 3-[2-chloro-4-fluoro-5-(3-methylpyrazin-2-yl)phenyl]-5-methyl-4H-isoxazole-5-carboxylate]: the pest or weed control at 250 g/ha in the test on AMAPA [1], in the test on ECHCG [2], in the test on EPHHL [3], with IPOHE [4], with LOLPE [5] and in the test on SETFA [6] was 0% each time. Also, the pest or weed control at 250 g/ha with AMAPA [7] was determined as 60%; with CHEAL, 60%; in the test on DIGSA, 20%; in the test on ECHCG [8], 20%; with ELEIN, 50%; with EPHHL [9] it was 40%. Moreover, the results for the pest or weed control at 250 g/ha with IPOHE [10], with LOLPE [11] and in the test on SETFA [12] were 30%, 0% and 50%, respectively.

For the compound `CCOC(=O)C1(C)CC(c2cc(-c3cc(Cl)ncc3OC)c(F)cc2Cl)=NO1` (stereo not drawn) [Compound 1-511, Ethyl 3-[2-chloro-5-(2-chloro-5-methoxy-4-pyridyl)-4-fluoro-phenyl]-5-methyl-4H-isoxazole-5-carboxylate], the pest or weed control at 250 g/ha with AMAPA [1], with ECHCG [2], in the test on EPHHL [3], in the test with IPOHE [4], in the test with LOLPE [5] and with SETFA [6] was 0% each time. Besides, the pest or weed control at 250 g/ha in the test on AMAPA [7] was 40%; in the test on CHEAL, 50%; with DIGSA, 30%; in the test on ECHCG [8], 30%; in the test with ELEIN, 40%; with EPHHL [9], 50%. For the same compound, the results for the pest or weed control at 250 g/ha in the test with IPOHE [10], with LOLPE [11] and in the test on SETFA [12] were 60%, 0% and 30%, respectively.
